Laboratory results reported in US20090062255A1, “TUMOR-TARGETING EVALUATION METHODOLOGY AND COMPOUNDS RELATED THERETO” (THALLION PHARMACEUTICALS INC., priority 2007, published 2009).
Where “and” joins values, the source holds several entries; their conditions need not be identical. Equal entries are not always repeated. Where two headings read alike, the source gives them in different places.

How the values were obtained:
[1] = target: T1, Leukotriene, Cysteinyl (CysLT1) receptor (Homo sapiens, UniProt Q9Y271); assay: CysLT1 radioligand binding assay; conditions: 4 μM compound, 1% DMSO; read-out: Percentage of inhibition or binding activity, CysLT1 (4 μM)
T1 construct: expressed in transfected cells; host or cells: CHO-K1 cells
T1 sequence (Q9Y271 1-337): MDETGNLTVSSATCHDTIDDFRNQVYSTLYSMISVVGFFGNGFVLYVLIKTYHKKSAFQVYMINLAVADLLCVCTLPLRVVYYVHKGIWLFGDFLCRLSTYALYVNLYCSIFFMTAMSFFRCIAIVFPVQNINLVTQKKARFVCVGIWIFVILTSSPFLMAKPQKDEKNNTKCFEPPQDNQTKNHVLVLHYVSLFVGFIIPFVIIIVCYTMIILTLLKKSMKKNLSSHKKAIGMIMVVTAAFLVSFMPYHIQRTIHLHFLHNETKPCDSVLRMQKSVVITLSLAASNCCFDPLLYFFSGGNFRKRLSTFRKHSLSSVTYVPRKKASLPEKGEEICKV
From the text: Leukotriene, Cysteinyl (CysLT1) is involved in inflammation and CysLT1-selective antagonists are used as treatment for bronchial asthma.
(§1) The procedures used were based on known assays: ACAT (from rat; Ref: Largis et al (1989), J. Lipid. Res., vol 30, 681-689), COX-2 (human; Ref: Riendeau et al (1997), Can. J. Physiol. Pharmacol., vol 75, 1088-1095 and Warner et al (1999), Pro. Natl. Acad. Sci. USA, vol 96, 7563-7568), 5-LO (human; Ref: Carter et al (1991), J. Pharmacol. Exp. Ther., vol 256, no 3, 929-937, and Safayhi et al (2000), Planta Medica, vol 66, 110-113), PBR (from rat; Le Fur et al (1983), Life Sci. USA, vol 33, 449-457), CysLT1 (human; Martin et al (2001), Biochem. Pharmacol., vol 62, no 9, 1193-1200) and CBR (from rat; Damm et al (1978), Res. Comm. Chem. Pathol. Pharmacol., vol 22, 597-600 and Speth et al (1979), Life Sci., vol 24, 351-357).
(§2) Binding assays were done for each of Compounds 1-12 and 46 using ACAT, COX-2, 5-LO, PBR and CysLT1 enzymes. The procedures used are based on the respective references mentioned above and the conditions are summarized in Tables 16 (enzyme assays) and 17 (radioligand receptor assays).
(§3) Binding Assays were done at constant concentration of the compound, in 1% DMSO as vehicle, and are specified below each enzyme/receptor type in Table 18. The results are expressed in Table 18 as percentage inhibition. Significance was obtained when a result was ≧50% binding or inhibition (underlined).

[2] = for MTD: mouse, in vivo
SRBC = assay: Hemolysis of SRBC; format: cell-based; conditions: concentration necessary to achieve 50% hemolysis of SRBC
[3] = target: T2, peripheral benzodiazepine receptor (PBR) (Rattus norvegicus, UniProt P16257); assay: PBR radioligand binding assay ([3H]PK-11195, rat heart); conditions: for inhibition at 1 µM: 1 μM compound, 1% DMSO, read-out: Percentage of inhibition or binding activity, PBR (1 μM)
T2 construct: CBR and PBR were obtained from rat brain and heart membrane-fractions, respectively; from tissue; host or cells: Wistar rat heart membranes
From the text: as §1, §2, §3
As Compound 1 was isolated from structural prediction through genetic analysis and activity identified through in vitro cytotoxic assays, its molecular target(s) were unknown at the time of discovery. Based on the structural characteristics of ECO-4601, we first investigated its binding affinity to the central (GABAA; CBR;) and peripheral (PBR) benzodiazepine receptors. The effect of ECO-4601 on CBR (GABAA) and PBR was initially evaluated in a radioligand-binding assay at MDS Pharma Services (Taipei, Tawain). CBR and PBR were obtained from rat brain and heart membrane-fractions, respectively. Displacement assays were done in the presence of 1 nM [^3H]-Flunitrazepam (CBR; GABAA) or 0.3 nM of [^3H]-PK11195 (PBR). ECO-4601 was tested at 0.01, 0.1, 0.5, 1, 5 and 10 μM. Non-specific binding was estimated in the presence of 10 μM diazepam (CBR) or 100 μM dipyrimadole (PBR) and assays were performed according to previous described methods (Damm et al Res Commun Chem Pathol Pharmacol 22, pp 597-600; Le Fur et al (1983) Life Science 33, pp 449-57). […] This contrats with current specific PBR ligands, which bind the PBR with nanomolar affinity yet their effect on cell proliferation, is in the micromolar range.

human c-RAF = target: T3, human c-RAF (Homo sapiens, UniProt P04049); assay: Upstate Kinase Profiler, c-RAF; format: biochemical
T3 construct: purchased Upstate (Kinase Profiler Service; Dundee, UK)
Protocol: Unlike current Ras signalling pathway inhibitors, ECO-4601 is not a direct kinase inhibitor. This was documented by evaluating the effect of ECO-4601 on human EGFR, c-RAF, MEK1, MAPK1 (ERK1) and MAPK2 (ERK2) kinase-activity (Upstate Kinase Profiler™ Service; Dundee, UK). ECO-4601 was tested at 0.5 μM and 5 μM in a final volume of 25 μL according to standard protocols developed by Upstate Ltd. Briefly, purified recombinant human enzymes were incubated with 25 mM Tris pH 7.5 containing EGTA, a specific substrate and γ-^32P-ATP. The reaction was initiated with MgATP mix and incubated for 40 minutes at RT. The reaction was stopped by the addition of 5 μL of a 3% phosphoric acid solution; aliquots were spotted on filters and counted. Detailed procedures are available on the Millipore Upstate website.

[4] = system: HT-29 (colorectal carcinoma); assay: In vitro cytotoxic activity (GI50, propidium iodide), HT-29; format: cell-based; conditions: for GI50: Homo sapiens, HT-29, 96 h, method (1), 96 hours
Protocol: (§4) Procedures used for each series of tests are described below.
(§5) Compounds were dissolved at 10 mM in DMSO. […] The following day, propidium iodide was added to one of the two plates and fluorescence measured (Tz). […] Each compound was tested at each concentration and in triplicates. The equivalent cell number was determined after adding propidium iodide by measuring the signal by fluorescence (C for control).

[5] = system: MDA-MB-231 (mammary gland adenocarcinoma); assay: In vitro cytotoxic activity (GI50, propidium iodide), MDA-MB-231; format: cell-based, human; conditions: Homo sapiens, MDA-MB-231, 96 h, method (1), 96 hours
Protocol: as §4, §5

SF268 (CNS) = assay: In vitro cytotoxic activity (GI50, propidium iodide), SF-268; format: cell-based; conditions: Homo sapiens, SF-268, 96 h, method (1), 96 hours
Protocol: as §4, §5

[6] = system: PC-3 (prostate adenocarcinoma); assay: In vitro cytotoxic activity (GI50, propidium iodide), PC-3; format: cell-based, human; conditions: Homo sapiens, 96 h, method (1)
Protocol: as §4, §5

T3 sequence (P04049 whole entry): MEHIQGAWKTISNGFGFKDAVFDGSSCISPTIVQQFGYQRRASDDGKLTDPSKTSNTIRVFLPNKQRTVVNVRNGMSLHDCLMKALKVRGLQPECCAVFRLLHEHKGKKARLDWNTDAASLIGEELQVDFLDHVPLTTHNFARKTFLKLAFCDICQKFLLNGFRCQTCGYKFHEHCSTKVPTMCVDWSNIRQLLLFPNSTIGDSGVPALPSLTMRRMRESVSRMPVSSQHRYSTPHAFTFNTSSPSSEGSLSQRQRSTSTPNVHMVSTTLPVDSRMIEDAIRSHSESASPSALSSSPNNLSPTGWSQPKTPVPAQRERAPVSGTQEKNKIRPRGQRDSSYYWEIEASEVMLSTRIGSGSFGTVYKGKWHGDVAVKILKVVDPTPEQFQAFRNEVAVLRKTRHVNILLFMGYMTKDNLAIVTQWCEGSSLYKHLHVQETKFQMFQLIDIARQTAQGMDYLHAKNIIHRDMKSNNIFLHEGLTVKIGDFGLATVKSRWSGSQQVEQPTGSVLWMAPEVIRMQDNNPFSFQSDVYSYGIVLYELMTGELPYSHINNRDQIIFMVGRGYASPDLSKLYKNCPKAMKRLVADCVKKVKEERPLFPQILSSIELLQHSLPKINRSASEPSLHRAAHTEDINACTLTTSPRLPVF

Row | SMILES | inhibition at 4 µM [1] | Hemolysis (ED50 μg/mL) (SRBC) | inhibition at 1 µM [3] | GI50 [6] | further results
1 | CC(C)=CCC/C(C)=C/CC/C(C)=C/CN1C(=O)c2cccc(O)c2Nc2c(O)cc(O)cc21 [Compound 1, 10-farnesyl-4,6,8-trihydroxy-5,10-dihydrodibenzo[b,e][1,4]diazepin-11-one] | 92% | 7.6 µg/mL | 80% | – | MTD ([2]; iv): 150 mg/kg; IC50 ([3]; multiple dilutions, 0.3 nM [3H]-PK11195, rat heart, read-out: PBR IC50 (binding affinity)): 291 nM and ~300 nM; Ki ([3]; multiple dilutions, read-out: PBR inhibition constant (Ki)): 257 nM; direct inhibition of c-Raf kinase activity (in words) (human c-RAF; 0.5 μM and 5 μM): does not directly inhibit; activity at 0.5 µM (human c-RAF; c-Raf, 0.5 μM, % of enzyme activity over positive control, read-out: Kinase Activity (%) ± SD): 114 ± 12%; activity at 5 µM (human c-RAF; c-Raf, 5 μM, % of enzyme activity over positive control, read-out: Kinase Activity (%) ± SD): 94 ± 2%
2 | CC(C)=CCC/C(C)=C/CC/C(C)=C/CN1C(=O)c2cccc(O)c2N(C)c2c(O)cc(O)cc21 [Compound 2, 10-farnesyl-4,6,8-trihydroxy-5-methyl-5,10-dihydro-dibenzo[b,e][1,4]diazepin-11-one] | 75% | 5.12 µg/mL | 65% | – | weight losses ([2]; for several days post-injection): about 7%; MTD ([2]; ip): ≥ 50 mg/kg; increase of cytotoxic activity compared to parent Compound 1 ([4]; HT-29 cell line): fifty fold increase
3 | CC(C)=CCC/C(C)=C/CC/C(C)=C/CN1C(=O)c2cccc(O)c2N(Cc2ccccc2)c2c(O)cc(O)cc21 [Compound 3, 5-benzyl-10-farnesyl-4,6,8-trihydroxy-5,10-dihydro-dibenzo[b,e][1,4]diazepin-11-one] | 59% | >64 µg/mL | 11% | – | –
4 | COc1cccc2c1Nc1c(O)cc(O)cc1N(C/C=C(\C)CC/C=C(\C)CCC=C(C)C)C2=O [Compound 4, 10-farnesyl-6,8-dihydroxy-4-methoxy-5,10-dihydro-dibenzo[b,e][1,4]diazepin-11-one] | 64% | >64 µg/mL | 92% | – | –
5 | COc1cc(O)cc2c1Nc1c(O)cccc1C(=O)N2C/C=C(\C)CC/C=C(\C)CCC=C(C)C [Compound 5, 10-farnesyl-4,8-dihydroxy-6-methoxy-5,10-dihydro-dibenzo[b,e][1,4]diazepin-11-one] | 72% | >64 µg/mL | 68% | – | –
6 | COc1cc(OC)c2c(c1)N(C/C=C(\C)CC/C=C(\C)CCC=C(C)C)C(=O)c1cccc(O)c1N2 [Compound 6, 10-farnesyl-4-hydroxy-6,8-dimethoxy-5,10-dihydro-dibenzo[b,e][1,4]diazepin-11-one] | 24% | >64 µg/mL | 75% | – | –
7 | COc1cccc2c1Nc1c(OC)cc(O)cc1N(CC=C(C)CCC=C(C)CCC=C(C)C)C2=O [Compound 7, 10-farnesyl-8-hydroxy-4,6-dimethoxy-5,10-dihydro-dibenzo[b,e][1,4]diazepin-11-one] | 15% | >64 µg/mL | 65% | – | –
8 | COc1cc(OC)c2c(c1)N(CC=C(C)CCC=C(C)CCC=C(C)C)C(=O)c1cccc(OC)c1N2 [Compound 8, 10-farnesyl-4,6,8-trimethoxy-5,10-dihydro-dibenzo[b,e][1,4]diazepin-11-one] | 13% | – | 55% | – | –
9 | CC(=O)Oc1cc(OC(C)=O)c2c(c1)N(CC=C(C)CCC=C(C)CCC=C(C)C)C(=O)c1cccc(O)c1N2 [Compound 9, 6,8-diacetoxy-10-farnesyl-4-hydroxy-5,10-dihydro-dibenzo[b,e][1,4]diazepin-11-one] | 70% | >64 µg/mL | 32% | 1.44 µM | GI50 [5]: 2.48 µM; GI50 (SF268 (CNS)): 1.88 µM; GI50 [4]: 12.6 µM
10 | CC(=O)Oc1cccc2c1Nc1c(OC(C)=O)cc(O)cc1N(CC=C(C)CCC=C(C)CCC=C(C)C)C2=O [Compound 10, 4,6-diacetoxy-10-farnesyl-8-hydroxy-5,10-dihydro-dibenzo[b,e][1,4]diazepin-11-one] | 67% | >64 µg/mL | 86% | 1.35 µM | GI50 [5]: 1.55 µM; GI50 (SF268 (CNS)): 2.02 µM; GI50 [4]: 13 µM
11 | CC(=O)Oc1cc(O)c2c(c1)N(CC=C(C)CCC=C(C)CCC=C(C)C)C(=O)c1cccc(OC(C)=O)c1N2 [Compound 11, 4,8-diacetoxy-10-farnesyl-6-hydroxy-5,10-dihydro-dibenzo[b,e][1,4]diazepin-11-one] | 74% | 9.8 µg/mL | 39% | 5.35 µM | GI50 [5]: 7.72 µM; GI50 (SF268 (CNS)): 5.79 µM; GI50 [4]: 16 µM
12 | CC(=O)Oc1cc(OC(C)=O)c2c(c1)N(CC=C(C)CCC=C(C)CCC=C(C)C)C(=O)c1cccc(OC(C)=O)c1N2 [Compound 12, 4,6,8-triacetoxy-10-farnesyl-5,10-dihydro-dibenzo[b,e][1,4]diazepin-11-one] | 33% | >64 µg/mL | 39% | – | –
13 | CC(C)CCCC(C)CCCC(C)CCN1C(=O)c2cccc(O)c2Nc2c(O)cc(O)cc21 (stereo not drawn) [Compound 46, 10-(3,7,11-trimethyldodecyl)-4,6,8-trihydroxy-5,10-dihydro-dibenzo[b,e][1,4]diazepin-11-one] | 71% | 13.9 µg/mL | -1% | 0.9 µM | –
